Legend:
[1] = test system: PI3K/p-cortactin; assay: PI3K/p-cortactin western blotting in F11-derived neurons; type: cell-based; details: 24 h
[2] = biological target: T1, hERG channel (Homo sapiens, UniProt Q12809); assay: hERG inhibition, automated patch clamp (QPatch 16) in CHO-K1 cells; type: cell-based; details: tested at 0.01-1 mM
T1 construct: host or cells: CHO-K1
Experimental: mM Tris-HCl (pH 8.0), 1.98 mM phenol and 1.02 µM hematine. Thereafter, the reaction was initiated by adding 4 µM (COX1) or 2 µM (COX2) of arachidonic acid and the mixture was incubated for 5 min at RT. For basal control measurements, arachidonic acid was omitted from the reaction mixture. Following incubation, t he reaction was stopped by the addition of 1 M HCl then 1 M Tris/HCl (pH 8.0) followed by cooling to 4°C.
The fluorescence acceptor (d2 labeled PGE2) and the fluorescence donor (anti -PGE2 antibody labeled with europium Cryptate) were then added. After 120 min, the fluorescence transfer corresponding to the amount of residual PGE2 was measured at λex=337 nm, λem=620 nm and λem=665 nm using a microplate reader (Envision, Perkin Elmer). The enzyme activity was determined by dividing the signal measured at 665 nm by that measured at 620 nm (ratio). The results were expressed as a percent age inhibition of the control enzyme activity. The standard inhibitory reference compound was Diclofenac, which was tested in each experiment at several concentrations to obtain an inhibition curve from which its IC50 value was calculated. […]
The human ether-a-go-go related gene (hERG) inhibition assay was performed by Eurofins Panlabs Inc, USA. […] Single cell ionic currents were measured in the automated patch clamp configuration at room temperature by using QPatch 16 in strument. […]

[3] = test system: IL-8-induced hPMN chemotaxis; details: read-out: IC50 (CXCL8 / IL-8-induced hPMN chemotaxis); hPMN pre-incubated 15 min at 37°C, migration 45 min
Experimental: Chemokines were from PeproTech (London, UK). Chemicals and cell culture reagents were from Sigma Aldrich (Saint Louis, MI, USA).
Cell isolation and culture
Human mononuclear cells and PMNs were obtained from buffy coats of heparinized peripheral
blood from adult healthy volunteers courtesy of Centro Trasfusionale, Ospedale S. Salvatore,
L’Aquila, Italy. Ethical clearance was obtained to perform these experiments. Human PMNs were
prepared to 99% purity by dextran sedimentation followed by hypotonic lysis of contaminating red
blood cells as previously described 1. PMNs were washed once with saline and then resuspended at
1.5 x 10^6/ml in HBSS for migration assay. Cell viability, as measured by Trypan Blue dye exclusion, was greater than 98%.
Migration of human PMNs was evaluated by microchamber technique in a 48-well
microchemotaxis chamber, as previously described 2. Briefly, 25 µl of control medium (PBS for
monocytes and HBSS for PMNs) or chemoattractant (CXCL1, CXCL8) solutions were seeded in
the lower compartment of the chemotaxis chamber. Fifty µl of cell suspension (1.5 x 10^6/ml) pre-
immersion fields at high magnification (100X; Zeiss microscope) were counted after sample

[4] = biological target: T2, P-glycoprotein (P-gp) (Homo sapiens, UniProt P08183); assay: P-gp inhibition (Caco-2 cell assay); type: in vitro ADME
T2 construct: endogenous in cells; host or cells: Caco-2

[5] = test system: PI3K and p-Akt; assay: PI3K and p-Akt western blotting in F11-derived neurons; type: cell-based; details: DF2726A 1 µM + oxaliplatin 20 µM, 24 h
Experimental: Following neuronal differentiation, neurons were treated for 24 h with DF2726A (1 μM final concentration), oxaliplatin (Sigma-Aldrich; 20 µM final concentration), or the combination of the two molecules.
Control and treated cells were collected and lysed in ice-cold RIPA buffer (PBS pH 7.4 containing 0.5% sodium deoxycolate, 1% Igepal, 0.1% SDS, 5 mM EDTA, 1% protease and phosphatase inhibitor cocktails; Sigma-Aldrich) as described in[22],[33]. Protein lysates (30 μg) were separated on 8–12% SDS-polyacrilamide gel and electroblotted onto polyvinyldifluoride membrane (PVDF; Sigma-Aldrich). Nonspecific binding sites were blocked by 5% non-fat dry milk (Bio-Rad Laboratories, Hercules, CA, USA) in Tris buffered saline (TBS: 20 mM Tris- HCl, pH 7.4, containing 150 mM NaCl) for 30 min at RT. […] The relative densities of immunoreactive bands were determined and normalized HRP-conjugated β-actin, using ImageJ software. […]

[6] = Aqueous solubility (SiriusT3); type: physicochemical
Experimental: (§1) vehicle were seeded in the upper compartment. The two compartments were separated by 5 µm pre-size polycarbonate filter (polyvinylpyrrolidone-free for PMN chemotaxis). The chamber was […]
(§2) Physicochemical characterization […]
(§3) and a turbidity-sensing device. […]
(§4) water/HBSS to a final concentration of 10 μM. Cell membrane homogenates (48 μg protein) were […]

[7] = Metabolic stability, rat; type: in vitro ADME; details: Test conc: 2.5 µM
From the text: (§5) Table 1 Physicochemical and in Vitro ADME Properties of DF2726A. | column: DF2726A

[8] = pKa, logD7.4, logP (SiriusT3 titration); type: physicochemical
Experimental: as §1, §2, §3, §4

[9] = biological target: CYP 2C9 (Homo sapiens, UniProt P11712); assay: CYP inhibition 2C9; type: in vitro ADME
From the text: as §5

Chain of CYP 2C9 (P11712 whole entry): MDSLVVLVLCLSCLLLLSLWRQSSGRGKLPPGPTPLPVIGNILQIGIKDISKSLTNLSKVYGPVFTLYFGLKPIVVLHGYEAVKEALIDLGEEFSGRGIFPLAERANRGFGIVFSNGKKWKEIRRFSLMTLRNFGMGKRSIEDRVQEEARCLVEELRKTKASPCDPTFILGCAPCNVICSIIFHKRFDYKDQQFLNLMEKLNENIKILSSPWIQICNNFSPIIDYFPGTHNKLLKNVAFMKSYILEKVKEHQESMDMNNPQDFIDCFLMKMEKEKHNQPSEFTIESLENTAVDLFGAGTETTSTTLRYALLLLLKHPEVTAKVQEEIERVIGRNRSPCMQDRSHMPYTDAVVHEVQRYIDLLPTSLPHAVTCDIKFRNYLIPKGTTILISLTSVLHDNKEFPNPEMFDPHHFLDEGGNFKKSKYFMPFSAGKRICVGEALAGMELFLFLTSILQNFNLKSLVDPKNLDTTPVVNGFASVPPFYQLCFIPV
T2 sequence (P08183 whole entry): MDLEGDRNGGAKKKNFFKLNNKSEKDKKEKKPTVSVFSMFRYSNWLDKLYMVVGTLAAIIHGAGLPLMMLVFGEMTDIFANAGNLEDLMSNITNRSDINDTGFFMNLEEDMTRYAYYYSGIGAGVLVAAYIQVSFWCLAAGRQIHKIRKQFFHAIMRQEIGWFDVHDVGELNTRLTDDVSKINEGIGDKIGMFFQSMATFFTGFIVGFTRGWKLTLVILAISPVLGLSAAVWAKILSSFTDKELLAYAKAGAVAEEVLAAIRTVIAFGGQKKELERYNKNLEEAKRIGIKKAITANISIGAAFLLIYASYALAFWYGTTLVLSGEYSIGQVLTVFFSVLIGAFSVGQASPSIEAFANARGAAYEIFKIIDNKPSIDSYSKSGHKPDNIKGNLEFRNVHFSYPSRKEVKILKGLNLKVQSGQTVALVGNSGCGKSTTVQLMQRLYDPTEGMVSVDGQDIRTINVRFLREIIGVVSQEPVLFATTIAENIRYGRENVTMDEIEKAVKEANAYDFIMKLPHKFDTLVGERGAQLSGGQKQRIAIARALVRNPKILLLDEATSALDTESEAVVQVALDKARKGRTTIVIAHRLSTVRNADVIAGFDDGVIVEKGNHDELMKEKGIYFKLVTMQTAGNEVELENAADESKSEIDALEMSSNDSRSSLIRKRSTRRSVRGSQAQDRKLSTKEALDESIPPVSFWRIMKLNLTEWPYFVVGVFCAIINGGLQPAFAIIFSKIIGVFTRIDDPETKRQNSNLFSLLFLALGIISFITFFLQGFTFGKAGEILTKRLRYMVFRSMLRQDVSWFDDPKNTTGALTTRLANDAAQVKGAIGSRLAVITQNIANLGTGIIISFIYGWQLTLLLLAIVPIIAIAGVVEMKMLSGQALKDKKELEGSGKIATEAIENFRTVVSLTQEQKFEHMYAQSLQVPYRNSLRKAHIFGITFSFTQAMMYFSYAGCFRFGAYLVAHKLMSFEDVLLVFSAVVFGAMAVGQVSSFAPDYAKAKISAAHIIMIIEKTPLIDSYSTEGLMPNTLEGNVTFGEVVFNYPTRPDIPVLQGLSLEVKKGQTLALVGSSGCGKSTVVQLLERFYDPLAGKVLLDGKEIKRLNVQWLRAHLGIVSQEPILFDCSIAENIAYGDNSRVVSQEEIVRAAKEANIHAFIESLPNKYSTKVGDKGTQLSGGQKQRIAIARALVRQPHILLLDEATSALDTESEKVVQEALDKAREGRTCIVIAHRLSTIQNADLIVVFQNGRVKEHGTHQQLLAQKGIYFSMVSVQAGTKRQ
T1 sequence (Q12809 whole entry): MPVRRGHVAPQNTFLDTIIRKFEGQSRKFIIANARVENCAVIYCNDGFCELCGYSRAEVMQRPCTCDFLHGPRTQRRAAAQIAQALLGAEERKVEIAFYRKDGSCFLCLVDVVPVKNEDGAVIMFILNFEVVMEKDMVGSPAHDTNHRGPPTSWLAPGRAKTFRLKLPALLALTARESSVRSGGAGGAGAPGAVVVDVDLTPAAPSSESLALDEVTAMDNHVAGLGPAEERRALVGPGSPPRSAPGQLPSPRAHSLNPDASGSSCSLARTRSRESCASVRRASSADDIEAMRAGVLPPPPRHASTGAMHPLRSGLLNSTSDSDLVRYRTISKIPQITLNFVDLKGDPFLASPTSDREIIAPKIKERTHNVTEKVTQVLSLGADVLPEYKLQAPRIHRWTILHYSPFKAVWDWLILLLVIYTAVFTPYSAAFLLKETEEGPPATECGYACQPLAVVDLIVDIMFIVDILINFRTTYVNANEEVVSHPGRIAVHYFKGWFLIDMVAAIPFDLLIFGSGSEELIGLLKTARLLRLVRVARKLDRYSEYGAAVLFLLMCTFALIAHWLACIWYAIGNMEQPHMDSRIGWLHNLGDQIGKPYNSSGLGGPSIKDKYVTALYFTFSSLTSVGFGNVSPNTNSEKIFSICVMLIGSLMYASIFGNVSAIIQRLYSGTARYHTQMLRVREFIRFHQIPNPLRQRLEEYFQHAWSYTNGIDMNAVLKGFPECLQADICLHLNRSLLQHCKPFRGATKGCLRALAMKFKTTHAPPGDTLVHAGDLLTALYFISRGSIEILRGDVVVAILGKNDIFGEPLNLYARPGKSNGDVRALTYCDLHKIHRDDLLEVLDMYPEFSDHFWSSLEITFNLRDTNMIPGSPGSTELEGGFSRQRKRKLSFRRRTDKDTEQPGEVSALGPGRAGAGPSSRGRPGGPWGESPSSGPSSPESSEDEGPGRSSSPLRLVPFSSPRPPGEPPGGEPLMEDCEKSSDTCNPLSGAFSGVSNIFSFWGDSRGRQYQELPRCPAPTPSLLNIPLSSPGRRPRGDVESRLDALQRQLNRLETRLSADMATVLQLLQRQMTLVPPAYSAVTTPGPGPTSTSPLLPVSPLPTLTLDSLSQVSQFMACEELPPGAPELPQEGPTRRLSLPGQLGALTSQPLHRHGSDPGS

With `CC(C)(C(=O)O)c1ccc(Nc2nc(C(F)(F)F)cs2)cc1` [DF2726A] the “PI3K/p-cortactin expression, oxaliplatin-treated neurons” value ([1]; DF2726A 1 µM + oxaliplatin 20 µM) was “attenuated this effect”, the “PI3K/p-cortactin expression, paclitaxel-treated neurons” value ([1]; DF2726A + paclitaxel 10 nM) was “attenuated this effect” and the IC50 [2] was greater than 1000 µM. The IC50 [3] was 0.01 ± 0.005 µM, the “P-glycoprotein (P-gp) inhibition” value [4] was “no P-glycoprotein (P-gp) inhibition” and the “PI3K and p-Akt protein levels, oxaliplatin-treated neurons” value [5] was “comparable to those of control cells”. For the same compound, the Acqueous solubility [6] was greater than 30 mg/mL, the Metabolic stability rat [7] was 15.3 µL/min/10^6 cells and the logP [8] was 4.3. For the same compound, the pKa ([8]; 0.15 M KCl, 25 ± 1°C) was 4.14, the logD7.4 ([8]; pH 7.4) was 0.75 and the IC50 [9] was greater than 30 µM.

Reference: PMC6692352, “DF2726A, a new IL-8 signalling inhibitor, is able to counteract chemotherapy-induced neuropathic pain” (Scientific Reports, 2019)
